Laboratory results reported in patent US20230301890A1, “COMPOSITIONS COMPRISING UROLITHINS” (Amazentis SA, priority 2022, published 2023).
“Also recorded” adds a separate entry of the source.

What was measured:
[1] = test system: human skin; assay: RNA-seq transcriptomics and GSEA of forearm skin biopsies (aging study 1); assay type: in vivo; conditions: 8 weeks; for expression of collagen genes (COL1A1, COL5A1, COL5A2, COL14A1, COL3A1) / gene set "collagen fibril organization" (Normalized Enrichment Score): 1% Mitopure product; for expression of collagen genes (COL1A1, COL5A1, COL5A2, COL14A1, COL3A1): change vs baseline normalized over placebo; for gene set "collagen fibril organization" (Normalized Enrichment Score): end of study vs baseline, normalized over placebo/vehicle
Procedure: In this study, a cosmetic product with a 1% concentration of the active Mitopure or a placebo product were tested on skin aging for 8 weeks. […] Gene set enrichment analysis (GSEA) was performed using the R package ClusterProfiler [Yu et al., 2012]. Briefly, in each comparison, genes were ranked by age beta score value, and the enrichment of a given gene set among up- or-down regulated genes was statistically tested. The minimum and maximum gene set sizes were set to 10 and 500, respectively. Resulting p-values were adjusted using the BH method. Terms with an adjusted p-value<0.05 were considered as statistically significant. To analyze mitochondrial effects biopsies will be taken from a subpanel on volar forearms prior and after 8 weeks of product application and will be analyzed for biomarkers by 3rd parties (See FIGS. 2 and 4). Gene set enrichment analysis (GSEA) will be employed to look for overrepresentation of known mitochondrial pathways and gene functional categories among the regulated genes expressed in human skin. Genes will be ranked by fold change (high to low) and filtered (unadjusted P value of 0.1 before using them) in the GSEA analysis to reduce the risk of false positives. Gene sets defined by the Gene Ontology (GO) Consortium (http://www.geneontology.org/) will be analyzed. We investigated biological pathways impacted by topical UA application performing RNA-seq transcriptomics of forearm skin biopsies from the aging study I. Gene set enrichment analysis (GSEA) was applied to identify significant pathways changed by UA comparing end of the study to baseline, and normalizing results over vehicle. […] We further studied which UA regulated pathways are involved in the natural skin aging process. […] This gene set includes collagen genes encoding for fibrillar type I and III collagen (FIG. 13B), known to decline in skin with chronological aging 13, photo-aging and smoking 14. […] Among them, […]-1, regulating 3D structure and elasticity 15 and AEBP, encoding for a collagen-interacting protein required for optimal tissue repair 16 (FIG. 13B).

[2] = test system: facial wrinkles; assay: Aging study 1: wrinkle analysis of Colorface images; assay type: in vivo, human
Description: The effect of the test product on the skin barrier function will be assessed by transepidermal […] (TEWL) at the beginning as well as after 2 weeks and after 8 weeks of product application. Furthermore, effects on the facial skin on skin hydration (by Corneometer), skin elasticity and firmness (by Cutometer) and skin color (by Spectrophotometer) will be investigated. Additionally, skin layer thickness and undulation index of the dermal epidermal junction (DEJ) will be measured by line-field confocal optical coherence tomography (LC-OCT). Images for wrinkle analysis and for documentation purpose will be taken with Colorface. A questionnaire regarding product traits will be filled in after 2 weeks of product application and at the end of the study.
The following efficacy assessment(s) will be performed: • Biomarker analysis of 3 mm punch-biopsies on 30 subjects (15 subjects per group) by Sponsor/3rd party • Transepidermal Water Loss (TEWL) by Tewameter [g/(m2h)j • Skin Hydration—Skin Capacitance by Corneometer [a.u.j] (see FIG. 8) • Skin Color by Spectrophotometer • Skin Firmness—R0 (Uf) by Cutometer [mm] • Skin Elasticity—R7 (Ur/Uf) by Cutometer • Image analysis by line-field confocal optical coherence tomography (LC-OCT) by Damae**: • (a) Skin layer thickness (epidermis and stratum corneum) • (b) Undulation index of the dermal epidermal junction (DEJ) • Image analysis of Colorface Images by Newtone • (a) analysis of wrinkles and fine lines (see FIG. 7) • (b) creation of average face • Questionnaire of product traits • upon decision of the sponsor, depending on the results of the other instrumental measurements analysis will be done on either one group at three timepoints, or on two groups at two timepoints
COLORFACE® PHOTOBOX (Newtone Technologies, Lyon, France): Colorface® is used for standardized, computer-controlled facial photography. It is equipped with a 24 Mpixel Nikon camera and a various range of LED-flashes at fixed positions in the booth. Illumination of the face is done with • ? standard flashes • ? parallel-polarized light • ? cross-polarized light • □ UV flashes to obtain fluorescent images. The acquisition software for Colorface is used as image database, but also defines the settings for the respective study. All settings are fixed so that unwanted changes of image capture parameters can be avoided. The instrument enables facial photography of high quality and same illumination at different assessment times. Images of the following position of the face will be taken: • ? front • ? right • ? left • 1 single image per setting, face position and assessment time • Data will be stored in the Newtone Imaging access cloud • Images will be provided to the sponsor in an anonymized way (e.g., black bar covering eyes) if possible.
Crow's Feet Analysis: • Parameter: Visible length, Visible surface, Visible depth and Visible volume • Illumination: STD60 • View: profile: right and left • Area: Crow's Feet

[3] = test system: skin barrier function; assay: Skin barrier function (TEWL) by Tewameter, aging studies; assay type: in vivo, human; conditions: UA 1% topical, 8 weeks
Procedure: TEWAMETER® TM 300 (Courage & Khazaka, Cologne, Germany): Transepidermal water loss (TEWL) is a non-invasive method to measure the barrier function of the skin and is regarded as a sensitive parameter to quantify skin barrier damage. Briefly, the insensible water evaporation from the skin is measured by placing cylindric open chamber with two hygrosensors at defined distance to the skin. The probe is held in place for each measurement for 30 seconds. This is to assure that a stable value has been established. The first part of the measurements belongs to this equilibration phase. The values of the last 10 seconds (=10 values) are averaged as the actual measurement value.
TEWAMETER® TM 300 (Courage & Khazaka, Cologne, Germany): Transepidermal water loss (TEWL) is a non-invasive method to measure the barrier function of the skin and is regarded as a sensitive parameter to quantify skin barrier damage. Briefly, the insensible water evaporation from the skin is measured by placing cylindric open chamber with two hygrosensors at defined distance to the skin.

[4] = test system: 3D reconstituted human epidermis (RHE); assay: Gene expression in 3D reconstituted human epidermis after daily cream application; assay type: cell-based; conditions: UA 1% moisturizing cream daily for 3 days, vs Vehicle
Description: Finally, we employed a model of 3D reconstituted human epidermis (RHE) applied daily with the UA 1% moisturizing cream for 3 days.

SMILES: O=c1oc2cc(O)ccc2c2ccc(O)cc12 [Urolithin A]
- expression of collagen genes (COL1A1, COL5A1, COL5A2, COL14A1, COL3A1) [1]: significant up-regulation
- expression of collagen genes (COL1A1, COL5A1, COL5A2, COL14A1, COL3A1) ([1]; listed as Mitopure): increased expression; also recorded: all upregulated; also recorded: improved expression
- gene set "collagen fibril organization" (Normalized Enrichment Score) [1]: significantly upregulated; also recorded: positive
- gene set "collagen fibril organization" (Normalized Enrichment Score) ([1]; listed as UA): most significantly activated pathway
- genes involved in skin homeostasis (EMILIN-1, AEBP) ([1]; UA 1% topical): rescued age-associated decline
- gene sets related to chemokine response ([1]; UA 1% topical, normalized over vehicle): reducing
- wrinkle depth ([2]; 0.5% Urolithin A skin cream, vs placebo): no impact
- wrinkle depth ([2]; 0.5% Urolithin A skin cream, vs placebo, listed as UA): did not showed any significant effect
- wrinkle depth ([2]; 0.5% Urolithin A skin cream, vs placebo, listed as urolithin A): Lack of anti-wrinkle effect
- wrinkle depth ([2]; 1% Urolithin A skin cream, 8 weeks twice daily, vs placebo treated side): significant impact on reducing wrinkle depth
- wrinkle depth ([2]; 1% Urolithin A skin cream, 8 weeks twice daily, vs placebo treated side, listed as UA): significant anti-wrinkle effects; also recorded: significant reduction
- wrinkle depth ([2]; 1% Urolithin A skin cream, 8 weeks twice daily, vs placebo treated side, listed as urolithin A): Reduction; also recorded: Anti-wrinkle effect
- reduction in wrinkles ([2]; cream containing Urolithin A at 1% alone): 4-6%
- skin barrier function [3]: no significant impact
- MMP1 and MMP3 gene expression [4]: No change
- mitophagy and autophagy genes [4]: early activation
